Reference: patent publication US8486924B2, “Taxane delivery system” (Celator Pharmaceuticals, Inc., priority 2007, dated 2013)

How the values were obtained:
[1] = tested on: MCF-7 human tumor cell line; settings: read-out: IC50 values MCF-7; prodrug/POPC/2kPS3k (1:1:2) formulations; 72 hours; MTT; ± SD
[2] = tested on: A2780 human tumor cell line; assay: MTT growth inhibition, A2780 cells, 72 hours; settings: read-out: IC50 values A2780, prodrug/POPC/2kPS3k (1:1:2) formulations, ± SD
[3] = tested on: HT29 human colon carcinoma cells
Protocol: Female athymic nude mice (7-8 weeks old) were inoculated subcutaneously with 100 μl HT29 human colon carcinoma cells (2×10^6 cells) using a 26 gauge needle. Mice were randomly grouped (n=6/group) with a mean tumor size between 80 and 120 mg prior to first treatment. […] Subsequent injections were made according to the designated schedule. Tumor length and width measurements, body weight and in life observations were recorded 2-3 times per week. Tumor weight was calculated according to the formula (L×W^2)/2.
The relative efficacies of nanoparticle formulations of 1, 2, 4, 5, 6 and 7 were determined in the HT29 model using a 36 μmol/kg dose on a Q4Dx6 schedule (FIG. 3). Saline was used as a negative control.
(§1) The activity of 7 in POPC/2.5kPS3k nanoparticle formulations relative to paclitaxel was determined by comparing the efficacy of doses ranging from 0.25 to 3 mole equivalents of paclitaxel (FIG. 4) in the HT29 tumor model. Taxol® dosed at 23 μmol/kg on a Q2Dx5 schedule was used as a positive control.
The tumor growth data was analyzed by two methods to determine what dose of 7 would be equivalent to the Taxol® positive control.

[4] = co-lipid POPC, prodrug/co-lipid/2.5kPS3k (1:1:2), vortexing 30 seconds
Protocol: The physical stability of formulations was investigated by examining changes in particle size after vortexing prodrug/co-lipid/2.5kPS3k (1:1:2) nanoparticles in water, 150 mM saline or 300 mM sucrose (Table 1). […] The increase in particle size was monitored by using dynamic light scattering to measure the Z average (the intensity weighted mean size of the particle distribution) value for samples before and after vigorous vortexing. The change in the Zave value was used as surrogate readout for the formation of aggregates or precipitates resulting from mechanical instability, where a higher value for ΔZave indicated a higher level of aggregation or precipitation (Table 1).

[5] = mouse, in vivo
Protocol: Athymic nude mice (n=3/timepoint) were injected iv with test samples (10 μl/g body weight, to a maximum of 250 μl). Blood was collected at the designated time point by cardiac puncture and placed into EDTA coated microtainer tubes (BD Biosciences). The tubes were centrifuged at 2800 rpm for 10 minutes. Plasma was recovered and 50 μl aliquots analyzed by HPLC for drug content. Samples containing ^3H—CHE (50 μl) were diluted with PicoFluor40™ scintillation fluid (Packard) and counted on a Beckman-Coulter LS 6500 Multipurpose scintillation counter. The total drug (counts) per mouse in the blood compartment was calculated assuming a plasma volume of 0.04125 mL per gram of body weight.
Elimination studies tracking both the prodrug and the particle were conducted to obtain a more accurate description of the partitioning behavior of the prodrugs in vivo (FIG. 1). Prodrug elimination was followed by HPLC, while particle elimination rates were determined by labeling nanoparticles with tritiated cholesterylhexadecyl ether (3H—CHE).
Formulations comprised of 1/VES/2kPS3k (1:1:2) and 2/VES/2kPS3k (1:1:2) were labeled with trace amounts of ^3H—CHE and plasma levels of both the label and prodrug were monitored in Foxn1^nu mice (FIG. 1, Panel A).
Effect of prodrug partitioning on plasma drug elimination was determined. The prodrug panel was screened using prodrug/POPC/2kPS3k (1:1:2) nanoparticles in Foxn1^nu mice to determine elimination rates for the different prodrug conjugates (FIG. 2). […] Conjugates were formulated at a concentration of 0.7 mg/mL.
In order to estimate the partitioning half-life for each prodrug, it was assumed that 1 tracked the particle elimination rate based on the results discussed above. The elimination of all other prodrugs were then fitted to four parameter double exponential decay curves and normalized against 1.

[6] = prodrug/POPC/2.5kPS3k (1:1:2) nanoparticles in water; volume weighted average
Protocol: The prodrug, co-lipid and stabilizer polymers (typically on a 1:1:2 w/w basis) were dissolved in ethanol/THF (4:1) at a concentration of 40 mg/ml. The solvent was rapidly diluted with water using a four port CVIJ mixer^13, 14 with flow rates set at […] (solvent/water/water/water). Flow rates were controlled using Harvard Apparatus PHD2000 syringe pumps. The resultant solution was then dialyzed against water to remove residual solvent. […] When higher concentrations were required the dialyzed solution was diluted with equi-volumes of 600 mM sucrose and then concentrated using a 100 kD, 0.5 mm lumen, 60 cm path length MidGee hoop cartridge (GE Healthcare Life Sciences, Piscataway, N.J.) with a peristaltic pump. Particle size was determined using a Malvern Zetasizer Nano-ZS particle sizer and reported as volume weighted data.
Formulations were composed of a prodrug, a co-lipid and an amphipathic stabilizer in a weight ratio of 1:1:2, respectively at a concentration of 40 mg per mL of solvent. […] Poly(ethylene glycol)-b-polystyrene (2kPS3k or 2.5kPS3k) was used as the amphipathic stabilizer. Other stabilizers may also be used.

[7] = Maximum tolerated dose on Q2D schedule in HT29 tumor model; assay type: in vivo, mice; settings: POPC/2.5kPS3k nanoparticle formulation; Q2Dx5 schedule
Protocol: as §1, with “control. The dosing regime was chosen since the greatest efficacy for 7 was observed on a Q2D schedule, which was also optimal for Taxol®, and the maximum tolerated treatment course at this Taxol® dose was 5 injections. The maximum tolerate dose of 7 on this schedule was approximately 3 paclitaxel equivalents (69 μmol/kg).” for “control.”

## CCCCCCCCCCCCCCCCCCCCCCOC(=O)COCC(=O)OC(C(=O)OC1CC2(O)C(OC(=O)c3ccccc3)C3C4(OC(C)=O)COC4CC(O)C3(C)C(=O)C(OC(C)=O)C(=C1C)C2(C)C)C(NC(=O)c1ccccc1)c1ccccc1 (stereo not shown) [Prodrug 7, 2′-O-(5″-O-docosanyldiglycoloyl)-paclitaxel]
[1]
  IC50: 23.5 ± 1.3 nM
[2]
  IC50: 29.5 ± 5.2 nM
[3]; HT29, Q2Dx5, fitted curve, normalized to Taxol 23 μmol/kg
  dose achieving parity with Taxol (delay in reaching tumor size of 125 mg from start of treatment): 1.75 dose equivalents of paclitaxel
[3]; HT29, Q2Dx5, linear dose response, normalized to Taxol 23 μmol/kg
  dose achieving parity with Taxol (delay in reaching tumor size of 300 mg relative to saline): 1.65 paclitaxel equivalents
[3]; HT29, titration 0.25x to 3x paclitaxel equivalents
  dose achieving equivalent efficacy to Taxol at MTD: approximately 1.7 paclitaxel equivalents
[3]; HT29, treated at MTD, Q2Dx5
  tumor size at day 60: below 50 mg
[3]; HT29 model, 36 μmol/kg, Q4Dx6, nanoparticle formulations
  treatment induced delay in reaching a mean tumor size of 500 mm^3: 17 days
[4]; 150 mM saline
  ΔZave 150 mM saline: 24 nm
[4]; 300 mM sucrose
  ΔZave 300 mM sucrose: 0 nm
[4]; water
  ΔZave water: 18 nm
[5]
  partitioning half life: ~10 h
[6]
  Diameter: 23 nm
[7]
  maximum tolerated dose: 69 µmol/kg
